Test results as given in publication PMC6145453 (ACS infectious diseases, 2018).
Entries after “also recorded” stand apart in the source; their conditions may differ.

Tests used:
[1] = test system: A/Brisbane/59/2007-R (oseltamivir resistant); test: microbe, parasite or virus in culture; assay type: cell-based; conditions: Influenza A virus, H1N1, A549, 24 h
[2] = test system: rWSN-NP/Y40F virus; assay type: cell-based, influenza A virus
[3] = target: NP (rY40F WSN virus infected A549 cells) (Influenza A virus, UniProt P15682, G34D/P283S/Y40F); assay type: cell-based
[4] = test system: influenza A/WSN/33 virus; assay type: cell-based

| SMILES | IC50 [1] | resistance phenotype of Y40F mutant virus [2] | effect on NP oligomerization [3] | maximum virus inhibition while maintaining enough virus production for passages [4] |
| --- | --- | --- | --- | --- |
| CC(C)(C)c1ccc(C(=O)Nc2ccc(Nc3ccccc3)cc2)cc1 [S119-8, 4-(tert-butyl)-N-(4-(phenylamino)-phenyl)benzamide] | 3.85 µM | maintained resistance; also recorded: retains the same Y40F resistant phenotype | – | – |
| Cc1onc(-c2ccccc2)c1C(=O)N1CCN(c2ccc([N+](=O)[O-])cc2Cl)CC1 [nucleozin, reference compound] | – | minor resistance phenotype | altered | – |
| CC(C)(C)c1ccc(C(=O)Nc2ccc(NC(=O)c3ccc(C(C)(C)C)cc3)cc2)cc1 [S119, N,N′-(1,4-Phenylene)bis(4-(tert-butyl)benzamide)] | > 50 µM | resistant phenotype | unaffected | 3 logs |
